Measured values taken from patent US12441725B2, “ISO-citrate dehydrogenase (IDH) inhibitor” (ZHEJIANG METON PHARMACEUTICAL CO., LTD, priority 2019, dated 2025).

How the values were obtained:
[1] = biological target: T1, IDH (endogenous IDH1 R132C) in HT1080 cell (Homo sapiens, UniProt O75874, R132C); assay: Cell-based assay for IDH inhibition (decrease of D-2-HG) in HT1080 cells; details: human fibrosarcoma cell line HT1080, 16 hours treatment, D-2-HG by LC-MS, in triplet
T1 construct: which harbor endogenous heterozygous IDH1 R132C and R132H mutation respectively and accumulate D-2-HG
Outline: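 LC-MS/MS quantification of D-2-HG, normalized to glutamate, follows a 16 h compound exposure of IDH1 R132C HT1080 cells in DMEM with 10% FBS. Extraction uses pre-chilled 40% methanol/40% acetonitrile in water. Triplicate determinations; IC50 from D-2-HG levels relative to DMSO-treated cells.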

IDH1 R132C = biological target: T2, IDH1 R132C (Homo sapiens, UniProt O75874, R132C); assay: Biochemical assay for IDH inhibition (NADPH fluorescence), mutant IDH1 R132C; details: 25 nM IDH1-R132C, 1 hour pre-incubation, in triplet
T2 construct: 6xHis
Outline: (§1)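 The read-out was the linear-phase loss of NADPH fluorescence (340/460 nm) over 15 min, background-subtracted and normalized to DMSO wells, giving triplicate IC50 values. Beforehand, R132H (50 nM) or R132C (25 nM) was exposed to compound for 1 h at room temperature with 1.33 mM α-KG at pH 7.5, and the reaction was triggered by adding an 80 μM NADPH solution.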

IDH1 R132H = biological target: T3, IDH1 R132H (Homo sapiens, UniProt O75874, R132H); assay: Biochemical assay for IDH inhibition (NADPH fluorescence), mutant IDH1 R132H; details: 50 nM IDH1-R132H, 1 hour pre-incubation, in triplet
T3 construct: 6xHis
Outline: as §1

T3 sequence (O75874 whole entry R132H): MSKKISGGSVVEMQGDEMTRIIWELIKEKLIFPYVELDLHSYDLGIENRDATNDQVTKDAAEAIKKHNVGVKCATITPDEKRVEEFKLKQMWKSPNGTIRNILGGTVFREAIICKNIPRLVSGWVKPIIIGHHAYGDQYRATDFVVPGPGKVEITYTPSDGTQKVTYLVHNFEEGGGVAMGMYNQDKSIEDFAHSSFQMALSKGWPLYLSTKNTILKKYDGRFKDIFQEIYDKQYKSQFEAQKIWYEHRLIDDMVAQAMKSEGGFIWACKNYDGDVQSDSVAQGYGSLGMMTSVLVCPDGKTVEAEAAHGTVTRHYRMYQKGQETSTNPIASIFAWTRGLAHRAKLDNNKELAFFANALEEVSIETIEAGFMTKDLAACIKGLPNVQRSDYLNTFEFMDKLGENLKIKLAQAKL
T1 sequence (O75874 2-414 R132C): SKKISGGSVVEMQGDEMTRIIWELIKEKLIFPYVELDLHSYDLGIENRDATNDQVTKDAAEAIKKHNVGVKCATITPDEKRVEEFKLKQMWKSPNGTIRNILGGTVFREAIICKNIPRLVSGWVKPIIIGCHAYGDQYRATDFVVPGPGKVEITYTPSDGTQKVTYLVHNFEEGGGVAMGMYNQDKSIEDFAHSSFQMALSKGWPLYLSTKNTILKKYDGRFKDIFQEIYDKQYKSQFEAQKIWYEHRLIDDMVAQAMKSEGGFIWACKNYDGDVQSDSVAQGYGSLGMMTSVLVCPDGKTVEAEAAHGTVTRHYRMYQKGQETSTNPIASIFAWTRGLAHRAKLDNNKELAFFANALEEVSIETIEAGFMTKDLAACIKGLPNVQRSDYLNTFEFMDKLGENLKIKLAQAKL
T2 sequence (O75874 whole entry R132C): as the sequence (O75874 whole entry R132H) above, with H132C counted along it

Row | SMILES | IC50 [1] | IC50 (IDH1 R132C) | IC50 (IDH1 R132H)
1 | CCN1Cc2c(ccnc2N[C@@H](C)c2cc(C(C)(C)C)ncc2F)C1=O [Compound 63, (S)-4-((1-(2-(tert-butyl)-5-fluoropyridin-4-yl)ethyl)amino)-2-ethyl-2,3-dihydro-1H-pyrrolo[3,4-c]pyridin-1-one] | > 1000 nM | > 1000 nM | > 1000 nM
2 | CCN1Cc2c(ccnc2N[C@@H](C)c2cc3cc(Cl)ccc3[nH]c2=O)C1=O [Compound 64, (S)-6-chloro-3-(1-((2-ethyl-1-oxo-2,3-dihydro-1H-pyrrolo[3,4-c]pyridin-4-yl)amino)ethyl)quinolin-2(1H)-one] | > 1000 nM | > 1000 nM | 100 to 500 nM
3 | CCN1Cc2c(N[C@@H](C)c3ccc(Oc4ccc(C)cc4)c(F)c3)ncnc2C1=O [Compound 65, 6-ethyl-4-[[(1S)-1-[3-fluoro-4-(4-methylphenoxy)phenyl]ethyl]amino]-5H-pyrrolo[3,4-d]pyrimidin-7-one] | 100 to 500 nM | > 1000 nM | > 1000 nM
4 | CCN1Cc2c(N[C@@H](C)c3ccc(-c4ccnc(C(C)(C)C)c4)c(F)c3)ncnc2C1=O [Compound 66, (S)-4-((1-(4-(2-(tert-butyl)pyridin-4-yl)-3-fluorophenyl)ethyl)amino)-6-ethyl-5H-pyrrolo[3,4-d]pyrimidin-7(6H)-one] | 500 to 1000 nM | > 1000 nM | 100 to 500 nM
5 | CCN1Cc2c(N[C@@H](C)c3ccc(-c4ccc(F)c(C)c4)c(F)c3)ncnc2C1=O [Compound 67, (S)-4-((1-(2,4′-difluoro-3′-methyl-[1,1′-biphenyl]-4-yl)ethyl)amino)-6-ethyl-5H-pyrrolo[3,4-d]pyrimidin-7(6H)-one] | 100 to 500 nM | > 1000 nM | > 1000 nM
6 | CCN1Cc2c(ccnc2N[C@@H](C)c2ccc(C3CCCC3)c(F)c2)C1=O [Compound 68, 4-[[(1S)-1-(4-cyclopentyl-3-fluoro-phenyl)ethyl]amino]-2-ethyl-3H-pyrrolo[3,4-c]pyridin-1-one] | > 1000 nM | > 1000 nM | 500 to 1000 nM
7 | CCN1Cc2c(ccnc2N[C@@H](C)c2ccc(-c3ccnc(C(C)(C)C(N)=O)c3)c(F)c2)C1=O [Compound 69, 2-[4-[4-[(1S)-1-[(2-ethyl-1-oxo-3H-pyrrolo[3,4-c]pyridin-4-yl)amino]ethyl]-2-fluoro-phenyl]-2-pyridyl]-2-methyl-propanamide] | 500 to 1000 nM | > 1000 nM | > 1000 nM
8 | CCN1Cc2c(ccnc2N[C@@H](C)c2ccc(-c3ccnc4ccccc34)c(F)c2)C1=O [Compound 70, (S)-2-ethyl-4-((1-(3-fluoro-4-(quinolin-4-yl)phenyl)ethyl)amino)-2,3-dihydro-1H-pyrrolo[3,4-c]pyridin-1-one] | > 1000 nM | > 1000 nM | > 1000 nM
9 | CCN1Cc2c(ccnc2N[C@@H](C)c2ccc(-c3ccnc(C(C)(C)C)c3)c(F)c2)C1=O [Compound 71, (S)-4-((1-(4-(2-(tert-butyl)pyridin-4-yl)-3-fluorophenyl)ethyl)amino)-2-ethyl-2,3-dihydro-1H-pyrrolo[3,4-c]pyridin-1-one] | 100 to 500 nM | < 100 nM | < 100 nM
10 | CCN1Cc2c(ccnc2N[C@@H](C)c2ccc(-c3ccc4c(ccn4C)c3)c(F)c2)C1=O [Compound 72, (S)-2-ethyl-4-((1-(3-fluoro-4-(1-methyl-1H-indol-5-yl)phenyl)ethyl)amino)-2,3-dihydro-1H-pyrrolo[3,4-c]pyridin-1-one] | > 1000 nM | 500 to 1000 nM | 100 to 500 nM
11 | CCN1Cc2c(ccnc2N[C@@H](C)c2ccc(-c3ccc(C)cc3)c(F)c2)C1=O [Compound 73, (S)-2-ethyl-4-((1-(2-fluoro-4′-methyl-[1,1′-biphenyl]-4-yl)ethyl)amino)-2,3-dihydro-1H-pyrrolo[3,4-c]pyridin-1-one] | > 1000 nM | > 1000 nM | 100 to 500 nM

Further lines, results first:

Row | IC50 [1] | IC50 (IDH1 R132C) | IC50 (IDH1 R132H) | SMILES
12 | > 1000 nM | > 1000 nM | > 1000 nM | CCN1Cc2c(ccnc2N[C@@H](C)c2ccc(-c3ccc(F)cc3)c(F)c2)C1=O [Compound 74, (S)-4-((1-(2,4′-difluoro-[1,1′-biphenyl]-4-yl)ethyl)amino)-2-ethyl-2,3-dihydro-1H-pyrrolo[3,4-c]pyridin-1-one]
13 | > 1000 nM | > 1000 nM | > 1000 nM | CCN1Cc2c(ccnc2N[C@@H](C)c2ccc(-c3ccc(C(F)(F)F)nc3)c(F)c2)C1=O [Compound 75, (S)-2-ethyl-4-((1-(3-fluoro-4-(6-(trifluoromethyl)pyridin-3-yl)phenyl)ethyl)amino)-2,3-dihydro-1H-pyrrolo[3,4-c]pyridin-1-one]
14 | > 1000 nM | > 1000 nM | > 1000 nM | CCN1Cc2c(ccnc2N[C@@H](C)c2ccc(-c3cc(C)nc(C)c3)c(F)c2)C1=O [Compound 76, (S)-4-((1-(4-(2,6-dimethylpyridin-4-yl)-3-fluorophenyl)ethyl)amino)-2-ethyl-2,3-dihydro-1H-pyrrolo[3,4-c]pyridin-1-one]
15 | 500 to 1000 nM | 100 to 500 nM | 100 to 500 nM | CCN1Cc2c(ccnc2N[C@@H](C)c2ccc(-c3ccnc(C4CCC4)c3)c(F)c2)C1=O [Compound 77, (S)-4-((1-(4-(2-cyclobutylpyridin-4-yl)-3-fluorophenyl)ethyl)amino)-2-ethyl-2,3-dihydro-1H-pyrrolo[3,4-c]pyridin-1-one]
16 | 500 to 1000 nM | > 1000 nM | > 1000 nM | CCN1Cc2c(ccnc2N[C@@H](C)c2ccc(-c3ccnc(C4(O)CCC4)c3)c(F)c2)C1=O [Compound 78, (S)-2-ethyl-4-((1-(3-fluoro-4-(2-(1-hydroxycyclobutyl)pyridin-4-yl)phenyl)ethyl)amino)-2,3-dihydro-1H-pyrrolo[3,4-c]pyridin-1-one]
17 | 500 to 1000 nM | 100 to 500 nM | 100 to 500 nM | CCN1Cc2c(ccnc2N[C@@H](C)c2ccc(-c3ccnc(CC4CC4)c3)c(F)c2)C1=O [Compound 79, (S)-4-((1-(4-(2-(cyclopropylmethyl)pyridin-4-yl)-3-fluorophenyl)ethyl)amino)-2-ethyl-2,3-dihydro-1H-pyrrolo[3,4-c]pyridin-1-one]
18 | > 1000 nM | > 1000 nM | > 1000 nM | CCN1Cc2c(ccnc2N[C@@H](C)c2ccc(-c3ccccc3)c(F)c2)C1=O [Compound 80, (S)-2-ethyl-4-((1-(2-fluoro-[1,1′-biphenyl]-4-yl)ethyl)amino)-2,3-dihydro-1H-pyrrolo[3,4-c]pyridin-1-one]
19 | > 1000 nM | 500 to 1000 nM | 100 to 500 nM | CCN1Cc2c(ccnc2N[C@@H](C)c2ccc(-c3ccc(F)c(C)c3)c(F)c2)C1=O [Compound 81, (S)-4-((1-(2,4′-difluoro-3′-methyl-[1,1′-biphenyl]-4-yl)ethyl)amino)-2-ethyl-2,3-dihydro-1H-pyrrolo[3,4-c]pyridin-1-one]
20 | > 1000 nM | > 1000 nM | > 1000 nM | CCN1Cc2c(ccnc2N[C@@H](C)c2ccc(-c3ccc(C)cn3)c(F)c2)C1=O [Compound 82, (S)-2-ethyl-4-((1-(3-fluoro-4-(5-methylpyridin-2-yl)phenyl)ethyl)amino)-2,3-dihydro-1H-pyrrolo[3,4-c]pyridin-1-one]
21 | > 1000 nM | > 1000 nM | > 1000 nM | CCN1Cc2c(ccnc2N[C@@H](C)c2ccc(-c3ccn(C)n3)c(F)c2)C1=O [Compound 83, (S)-2-ethyl-4-((1-(3-fluoro-4-(1-methyl-1H-pyrazol-3-yl)phenyl)ethyl)amino)-2,3-dihydro-1H-pyrrolo[3,4-c]pyridin-1-one]
22 | > 1000 nM | > 1000 nM | 100 to 500 nM | CCN1Cc2c(ccnc2N[C@@H](C)c2ccc(-c3ccnc(C(C)(C)C#N)c3)c(F)c2)C1=O [Compound 84, (S)-2-(4-(4-(1-((2-ethyl-1-oxo-2,3-dihydro-1H-pyrrolo[3,4-c]pyridin-4-yl)amino)ethyl)-2-fluorophenyl)pyridin-2-yl)-2-methylpropanenitrile]
23 | > 1000 nM | > 1000 nM | > 1000 nM | CCN1Cc2c(ccnc2N[C@@H](C)c2ccc(-c3ccnc(C(O)C4CC4)c3)c(F)c2)C1=O (stereo partly drawn) [Compound 85, 4-(((1S)-1-(4-(2-(cyclopropyl(hydroxy)methyl)pyridin-4-yl)-3-fluorophenyl)ethyl)amino)-2-ethyl-2,3-dihydro-1H-pyrrolo[3,4-c]pyridin-1-one]
24 | > 1000 nM | > 1000 nM | > 1000 nM | CCN1Cc2c(ccnc2N[C@@H](C)c2ccc(-c3ccnc(C(=O)C4CC4)c3)c(F)c2)C1=O [Compound 86, (S)-4-((1-(4-(2-(cyclopropanecarbonyl)pyridin-4-yl)-3-fluorophenyl)ethyl)amino)-2-ethyl-2,3-dihydro-1H-pyrrolo[3,4-c]pyridin-1-one]
25 | < 100 nM | < 100 nM | < 100 nM | CCN1Cc2c(ccnc2N[C@@H](C)c2cc(F)c(-c3ccnc(C(C)(C)C)c3)cc2F)C1=O [Compound 87, (S)-4-((1-(4-(2-(tert-butyl)pyridin-4-yl)-2,5-difluorophenyl)ethyl)amino)-2-ethyl-2,3-dihydro-1H-pyrrolo[3,4-c]pyridin-1-one]
